# Results from patent publication US8901177B2, “Method of treating bladder disorders” (Targacept, Inc., priority 2012, dated 2014).
# Like-named read-outs stand apart in the source and are kept apart here.
# Experiments:
# human α3β4 channels = target: T1, human α3β4 channels (Homo sapiens, UniProt P30926+P32297); test: Use-dependent inhibition of human α3β4 channels expressed in CHO cells (Dynaflow electrophysiology); type: cell-based
# T1 construct: host or cells: CHO cells
# Procedure: There was an assumption that the dependence on the number of co-applications would be the most relevant to clinical concentrations, since upon the time of exposure in vivo, the number of open channels could reach substantial numbers; perhaps due to channel spontaneous opening, flickering, and endogenous transmitter release as a result of brain activity. All experiments were performed using a conventional Dynaflow (Cellectricon Inc.) electrophysiological system. Dynaflow settings: To achieve continuous exposure to the drug we used following Dynaflow chip loading. An example of standard chip loading for use-dependent experiments with example for 30 μM ACh and 0.1 μM of TC-05231 (racemic mecamylamine). For the following experiments, ACh always consisted of 30 μM and concentrations of compounds were, 0.03, 0.1, 0.3 and 1.0 (μM). FIG. 13 illustrates the settings.
# Applications were performed by positioning the cell in front of channel #1 for 1 second, followed by channel #3, then back to channel #1 by rapidly moving the Dynaflow chip, which consisted of both the laminar flow from the channels and the entire bath solution. The additional channels between control and ACh-containing channel were used: (1) to provide the needed space for an additional washout to avoid contaminating the control channels with the agonist solution; and (2) to allow for the necessary amount of time for the Dynaflow stage to reach its optimum scanning speed.
# 3.1. Establishment of recording baseline: First, pipette with cells moved to channel #3. Then cells were exposed to ACh by moving cells to channel #1 for 1 second and back to channel #3. This movement of cells was repeated 10 times at 30 second intervals;
# 3.2. Collection data on use-dependent inhibition: After establishment of stable baseline, cells were moved to channel #6 and exposed to a test compound for 30 sec. Then cells were moved to channel #8 for 1 second and back to channel #6 for 30 seconds (total 10 times with intervals 30 seconds); and 3.3. To test reversibility of block (washout): repeat step 1. Note: with this chip setting, during repeated application of acetylcholine plus test compound, there was no interruption in application of compounds. For all calculations, peak current amplitude was normalized to the peak current amplitude evoked by the 10th application of acetylcholine. Experimental Results
# [1] = racemic Inversine 2.5 mg BID, spinal cord injury subjects; cited from earlier work
# [2] = system: nicotinic receptors expressed in rat urinary bladder epithelial cells; conditions: intravesical; nicotine 0.05 and 1 μM, hexamethonium 10 and 100 μM, choline 10 and 100 μM; cited from earlier work
# NMDA receptor NR1a-NR2A = NMDA receptor NR1a-NR2A (Homo sapiens, UniProt Q05586+Q12879); test: Glutamate-evoked currents at NR1a-NR2A receptors in Xenopus oocytes (two electrode voltage-clamp); type: cell-based; conditions: for recovery following wash-out: after sustained exposure
# Sequence of NMDA receptor NR1a-NR2A (Q12879 23-1464, other chains not shown): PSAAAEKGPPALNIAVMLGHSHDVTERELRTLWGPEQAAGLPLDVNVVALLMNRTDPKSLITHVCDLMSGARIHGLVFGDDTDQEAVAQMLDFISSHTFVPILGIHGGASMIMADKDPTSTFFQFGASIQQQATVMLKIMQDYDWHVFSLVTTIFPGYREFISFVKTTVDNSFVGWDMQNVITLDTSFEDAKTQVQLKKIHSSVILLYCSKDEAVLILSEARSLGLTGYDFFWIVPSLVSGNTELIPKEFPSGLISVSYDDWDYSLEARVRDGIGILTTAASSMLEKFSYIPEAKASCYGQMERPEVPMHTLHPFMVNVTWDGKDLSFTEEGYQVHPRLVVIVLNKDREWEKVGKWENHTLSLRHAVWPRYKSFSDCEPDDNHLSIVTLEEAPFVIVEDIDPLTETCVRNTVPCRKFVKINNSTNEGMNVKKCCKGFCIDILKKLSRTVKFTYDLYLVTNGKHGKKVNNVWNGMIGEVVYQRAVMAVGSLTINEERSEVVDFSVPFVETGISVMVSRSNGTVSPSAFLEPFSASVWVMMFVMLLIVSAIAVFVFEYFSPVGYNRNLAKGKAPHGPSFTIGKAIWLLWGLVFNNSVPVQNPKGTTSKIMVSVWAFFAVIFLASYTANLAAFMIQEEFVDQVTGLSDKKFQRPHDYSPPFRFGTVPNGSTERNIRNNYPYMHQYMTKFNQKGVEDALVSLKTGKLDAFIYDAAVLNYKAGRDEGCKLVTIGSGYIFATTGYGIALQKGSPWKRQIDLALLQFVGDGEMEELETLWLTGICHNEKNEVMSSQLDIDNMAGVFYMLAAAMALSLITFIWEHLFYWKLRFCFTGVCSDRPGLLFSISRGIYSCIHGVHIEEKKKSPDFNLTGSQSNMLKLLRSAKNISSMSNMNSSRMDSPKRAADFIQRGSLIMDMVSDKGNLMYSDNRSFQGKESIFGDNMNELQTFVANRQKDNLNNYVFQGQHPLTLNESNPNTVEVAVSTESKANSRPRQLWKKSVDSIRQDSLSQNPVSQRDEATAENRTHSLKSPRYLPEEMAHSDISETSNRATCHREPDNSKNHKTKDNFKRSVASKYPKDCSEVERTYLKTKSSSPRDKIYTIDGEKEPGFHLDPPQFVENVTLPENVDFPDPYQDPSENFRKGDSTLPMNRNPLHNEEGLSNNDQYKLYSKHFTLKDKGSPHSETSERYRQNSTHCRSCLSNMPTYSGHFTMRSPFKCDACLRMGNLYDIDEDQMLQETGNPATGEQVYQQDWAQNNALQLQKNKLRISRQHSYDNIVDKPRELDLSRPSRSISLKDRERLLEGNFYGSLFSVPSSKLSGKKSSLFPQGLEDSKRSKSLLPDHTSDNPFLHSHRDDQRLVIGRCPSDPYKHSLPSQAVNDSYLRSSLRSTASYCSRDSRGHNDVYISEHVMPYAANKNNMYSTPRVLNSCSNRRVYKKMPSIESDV
# Procedure: All experiments were carried out at receptors expressed in Xenopus oocytes using the method of cDNA expression. Currents evoked by glutamate were recorded using the standard two electrode voltage-clamp configuration (TVEC). Xenopus oocytes were prepared and injected using standard procedures.
# Briefly, ovaries are harvested from Xenopus Laevis females that have been deeply anesthetized and pithed following the animal rights rule from the Geneva canton. A small piece of ovary is isolated for immediate preparation while the remaining part is placed at 4° C. in a sterile Barth solution containing in mM NaCl 88, KCl 1, NaHCO3 2.4, HEPES 10, MgSO4.7H2O 0.82, Ca(NO3)2.4H2O 0.33, CaCl2.6H2O 0.41, at pH 7.4, and supplemented with 20 μg/ml of kanamycine, 100 unit/ml penicillin and 100 μg/ml streptomycin. On the second day following dissociation, oocytes are injected with 2 ng of cDNA per oocyte containing the NR1a-NR2A or NR1a-NR2B using an automated injector (Hogg et al., J. Neurosci. Methods, 2008). […] Cells were held at −80 mV. Data were filtered at 10 Hz, captured at 100 Hz and analyzed using HiQ proprietary data acquisition and analysis software running under Matlab (Mathworks Inc.).
# Oocytes expressing the NR1a-NR2A or NR1a-NR2B receptors were challenged at periodic intervals with a glutamate test pulse. Test drug was then applied during a sustained period and its effects monitored by measuring the amplitude and time course of the glutamate evoked currents.
# Experiments were carried out with the NR1a-NR2A and NR1a-NR2B at least in triplicate. Positive reference compounds (ketamine and MK-801) were tested using the same protocol.
# To further evaluate effects of TC-5214, experiments using sustained exposure to this compound followed by a recovery period were carried out at NR1a-NR2A and NR1a-NR2B receptors. Measurements were made with (nM) 0, 3, 10, 30, 100, 300, TC-5214 and recovery monitored during 10 minutes. In addition, the same experimental protocol will be used with cells in control conditions to assess the stability of the measurements. Effects were measured in at least three cells.
# A use-dependent protocol was used to identify non-competitive inhibition of the receptors. Cells expressing the NMDA receptors were tested for their sensitivity to TC-5214 at 30 nM, using the same protocol as described above. Cells from the same batch were tested in parallel using the same incubation time with an identical concentration of TC-5214 (30 nM) but in absence of pulses during the incubation time with the compound. Two glutamate pulses were applied at the end of the incubation time, and recovery monitored as for the control conditions.
# [3] = system: bladder function in conscious rats; test: Intravesical model in conscious rats, first study (UROsphere), cystometry; type: in vivo, rat; conditions: tolterodine 10 μM, TC-5213 1 and 10 μM, hexamethonium 10 μM, TC-5214 0.1, 1 and 10 μM
# Excerpt: (1) In a first study (performed by UROsphere), female Sprague Dawley rats (200-270 g) from Charles River France, housed in 3-4 rats per cage were anesthetized with isoflurane (1.5-3%). […], a polyethylene catheter was implanted in the bladder through the dome and exteriorized at the scapular level. Each rat was housed individually after surgery. The cystometry is depicted in FIG. 2. This is the first known experiment using the intravesical model in conscious rats to test dexmecamylamine for potential efficacy in treating OAB.
# The effects of dosing dexmecamylamine (also referred to as TC-5214 and as TI-11179), at doses of 0.1, 1, and 10 μM are depicted in FIG. 4.
# The effects of dosing hexamethonium (10 μM) and tolterodine (10 μM) are depicted in FIG. 5.
# [4] = system: bladder function in anesthetized rats; test: Intravesical model in anesthetized rats (increased bladder contraction frequency), cystometry; type: in vivo, rat; conditions: 10 μM intravesical
# Procedure: Female Sprague Dawley rats (200-290 g) from Charles River France, housed in 3-4 rats per cage were anesthetized with urethane (1.2 g/kg) s.c., 3 mL/kg). A polyethylene catheter was implanted into the bladder through the dome. Ureters were tied and cut. Intravesical infusion periods with saline followed by an intravesical infusion period with one of the test compounds, hexamethonium (10 μM) or dexmecamylamine (1 and 10 μM), are depicted in FIG. 7.
# The intravesical anesthetized rat model is a model of increased bladder contraction frequency. The model is a “simplified” well established model used to evaluate OAB agents, recognizing that there are decreased inputs from cortical centers. This is the first known experiment using the intravesical anesthetized rat model of increased bladder contraction frequency to test dexmecamylamine for potential efficacy in treating OAB.
# [5] = TC-5213 28-day repeated oral toxicity study in rats; type: in vivo, rat
# Procedure: Eighty rats (40/sex) were assigned to 4 groups of 10/sex/group. Test article in purified water or water (vehicle) alone were administered once daily via oral gavage at a dose volume of 10 mL/kg. The dose levels were 0, 1, 10, and 50 mg/kg/day. Animals were given TC-5213-23 orally (gavage) for 28 days except those given the test article at 50 mg/kg from Day 1 to 7, followed by a dose of 40 mg/kg/day on the subsequent 21 days. The dose levels were calculated based on the free base form of the test article.
# [6] = 50 mg/kg/day oral, first week, after three to seven doses
# T1 sequence (P32297 32-505): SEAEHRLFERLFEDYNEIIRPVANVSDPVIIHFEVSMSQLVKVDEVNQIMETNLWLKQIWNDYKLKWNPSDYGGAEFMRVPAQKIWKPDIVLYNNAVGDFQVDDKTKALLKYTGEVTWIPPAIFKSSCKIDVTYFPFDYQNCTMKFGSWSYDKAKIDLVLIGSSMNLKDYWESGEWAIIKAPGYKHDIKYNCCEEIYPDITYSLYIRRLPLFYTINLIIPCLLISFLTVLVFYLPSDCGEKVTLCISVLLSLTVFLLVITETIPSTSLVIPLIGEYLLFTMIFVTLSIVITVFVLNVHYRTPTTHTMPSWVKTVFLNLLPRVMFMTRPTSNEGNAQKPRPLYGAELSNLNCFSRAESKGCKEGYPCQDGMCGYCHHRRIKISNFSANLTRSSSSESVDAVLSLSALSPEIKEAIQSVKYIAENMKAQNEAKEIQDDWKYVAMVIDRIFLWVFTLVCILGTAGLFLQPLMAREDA
# T1 sequence (P30926 22-498): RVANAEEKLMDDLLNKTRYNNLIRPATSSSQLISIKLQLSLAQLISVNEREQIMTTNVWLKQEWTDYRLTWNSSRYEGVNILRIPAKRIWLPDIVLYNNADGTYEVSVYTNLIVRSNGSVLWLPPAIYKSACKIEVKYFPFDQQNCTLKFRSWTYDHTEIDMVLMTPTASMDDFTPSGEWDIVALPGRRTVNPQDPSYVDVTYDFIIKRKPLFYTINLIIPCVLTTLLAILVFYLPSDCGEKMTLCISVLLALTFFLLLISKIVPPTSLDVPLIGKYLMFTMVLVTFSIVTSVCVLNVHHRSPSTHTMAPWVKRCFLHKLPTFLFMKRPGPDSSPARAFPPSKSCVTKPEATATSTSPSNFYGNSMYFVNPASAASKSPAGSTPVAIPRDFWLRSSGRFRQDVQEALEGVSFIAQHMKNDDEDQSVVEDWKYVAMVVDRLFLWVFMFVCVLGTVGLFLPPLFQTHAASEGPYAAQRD
structure (smiles),measurement,setting,value
"CNC1(C)C2CCC(C2)C1(C)C.Cl (racemic) [TC-5231, N,2,3,3-tetramethylbicyclo[2.2.1]heptan-2-amine hydrochloride, reference compound]",Inhibition by (%),"human α3β4 channels; 100 nM compound, after 10 co-applications of 30 uM Ach and compound, hydrochloride",25% ± 7%
same,activity at 0.03 µM,"human α3β4 channels; CHO, 30 nM compound + 30 μM ACh, successive grid rows = co-applications 1 to 10, control = 100, read-out: peak current amplitude normalized to 10th ACh application, use-dependent inhibition box",99.3%
same,activity at 0.1 µM,"human α3β4 channels; CHO, 100 nM compound + 30 μM ACh, successive grid rows = co-applications 1 to 10 at 30 s intervals, control = 100, read-out: peak current amplitude normalized to 10th ACh application, use-dependent inhibition box",94.5%
same,inhibition at 0.1 µM,"human α3β4 channels; CHO, 100 nM compound with acetylcholine, read-out: inhibition of human α3β4 receptor (asymptotes to the curve, FIG. 14)",20%
same,inhibition at 0.1 µM,"human α3β4 channels; CHO, 100 nM compound, after 10 co-applications of 30 uM Ach and compound, read-out: Inhibition by (%)",24.8%
same,recovery (%),"human α3β4 channels; after 100 nM compound, following 10 application of Ach (30 uM) alone",105% ± 11%
same,recovery / persistence of inhibition after wash out,"human α3β4 channels; after 30 and 100 nM compound, agonist alone",full recovery
same,bladder electric potential (amplitude of contraction),[1],decrease in bladder electric potential (amplitude of contraction)
CN1CCCC1c1cccnc1 (stereo not shown) [nicotine],significant effects on nicotinic receptors expressed in rat urinary bladder epithelial cells,[2],significant effects
"CNC1(c2ccccc2Cl)CCCCC1=O (stereo not shown) [ketamine, reference compound]",recovery following wash-out,NMDA receptor NR1a-NR2A,clear evidence for recovery
"C[C@]12N[C@H](Cc3ccccc31)c1ccccc12 [MK-801, reference compound]",recovery following wash-out,NMDA receptor NR1a-NR2A,little evidence of recovery
same,inhibition by positive control,"NMDA receptor NR1a-NR2A; sustained exposure, glutamate test pulses",nearly complete inhibition
Cc1ccc(O)c([C@H](CCN(C(C)C)C(C)C)c2ccccc2)c1 [tolterodine],significant effects in cystometry,[3],significant effects
C[N+](C)(C)CCCCCC[N+](C)(C)C [hexamethonium],changes in the frequency of bladder contraction,[4],meaningful changes
same,significant effects on nicotinic receptors expressed in rat urinary bladder epithelial cells,[2],significant effects
"CN[C@]1(C)[C@H]2CC[C@H](C2)C1(C)C [TC-5213, exo-R-mecamylamine]",significant effects in cystometry,[3],significant effects
same,"distended urinary bladder, full of urine, in early dead animals: females",[5]; 50 mg/kg/day oral,2
same,"distended urinary bladder, full of urine, in early dead animals: males",[5]; 50 mg/kg/day oral,3
same,"early deaths, females",[5]; [6],5/10
same,"early deaths, males",[5]; [6],4/10
same,"mortality, organ weight and microscopic changes",[5]; 50→40 mg/kg/day daily oral,"resulted in mortality, organ weight and/or microscopic changes"
same,No-Observed-Effect-Level (NOEL),"[5]; 28 days oral, males and females",1 mg/kg/day
same,opthalmological examinations,"[5]; rat, in vivo",No test article related changes
same,clinical pathology changes,"[5]; rat, in vivo, 40 mg/kg/day","slight increases in neutrophils; slight decreases in lymphocyte and platelets; slight increases in ALT, AST, and calcium"
same,organ weights at necropsy,"[5]; rat, in vivo, 40 mg/kg/day","decreased organ weights of prostate gland, seminal vesicles and thymus"
